target: GDP-bound KRAS protein (aa 1-169), containing both G12C and C118A amino acid substitutions (Homo sapiens (Human), UniProt P01116, C118A/G12C); assay: Coupled nucleotide exchange assay (SOS-mediated nucleotide exchange, AlphaScreen); type: biochemical; conditions: read-out: Coupled exchange IC50 (5 min; μM); 5 min compound pre-incubation
Sequence (P01116 other isoform, or with tags, fused parts or gaps G12C/C118A): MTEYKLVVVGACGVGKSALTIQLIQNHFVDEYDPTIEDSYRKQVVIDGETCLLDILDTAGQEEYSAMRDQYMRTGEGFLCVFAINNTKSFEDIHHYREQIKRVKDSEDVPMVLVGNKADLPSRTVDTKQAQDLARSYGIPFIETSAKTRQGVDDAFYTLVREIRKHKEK

Row | Structure (SMILES) | IC50 [µM]
1 | C=CC(=O)N1C[C@H](C)N(c2nc(=O)n(-c3c(C)ccnc3C(C)C)c3nc(-c4cc(OC)ccc4Cl)c(F)cc23)C[C@H]1C (atropisomer, axis not shown; (M)) [Example 94-6, (M)-7-(2-chloro-5-methoxy-phenyl)-4-[(2S,5R)-2,5-dimethyl-4-prop-2-enoyl-piperazin-1-yl]-6-fluoro-1-(2-isopropyl-4-methyl-3-pyridyl)pyrido [2,3-d]pyrimidin-2-one] | 0.468
2 | C=CC(=O)N1C[C@H](C)N(c2nc(=O)n(-c3c(C)ccnc3C(C)C)c3nc(-c4c(C)cccc4C)c(F)cc23)C[C@H]1C (atropisomer, axis not shown; (M)) [Example 94-9, (M)-7-(2,6-Dimethylphenyl)-4-[(2S,5R)-2,5-dimethyl-4-prop-2-enoyl-piperazin-1-yl]-6-fluoro-1-(2-isopropyl-4-methyl-3-pyridyl)pyrido [2,3-d]pyrimidin-2-one] | 0.469
3 | C=CC(=O)N1C[C@H](C)N(c2nc(=O)n(-c3c(C)ccnc3C(C)C)c3nc(-c4c(F)cccc4F)c(F)cc23)C[C@H]1C (atropisomer, axis not shown; (M)) [Example 94-11, (M)-7-(2,6-Difluorophenyl)-4-[(2S,5R)-2,5-dimethyl-4-prop-2-enoyl-piperazin-1-yl]-6-fluoro-1-(2-isopropyl-4-methyl-3-pyridyl)pyrido [2,3-d]pyrimidin-2-one] | 0.844
4 | C=CC(=O)N1C[C@H](C)N(c2nc(=O)n(-c3c(C)ccnc3C(C)C)c3nc(-c4ccccc4C(F)F)c(F)cc23)C[C@H]1C (atropisomer, axis not shown; (M)) [Example 94-13, (M)-7-[2-(Difluoromethyl)phenyl]-4-[(2S,5R)-2,5-dimethyl-4-prop-2-enoyl-piperazin-1-yl]-6-fluoro-1-(2-isopropyl-4-methyl-3-pyridyl)pyrido [2,3-d]pyrimidin-2-one] | 0.387
5 | C=CC(=O)N1C[C@H](C)N(c2nc(=O)n(-c3c(C)ccnc3C(C)C)c3nc(-c4ccccc4C(=O)O)c(F)cc23)C[C@H]1C (atropisomer, axis not shown; (M)) [Example 94-15, (M)-2-[4-[(2S,5R)-2,5-Dimethyl-4-prop-2-enoyl-piperazin-1-yl]-6-fluoro-1-(2-isopropyl-4-methyl-3-pyridyl)-2-oxo-pyrido[2,3-a]pyrimidin-7-yl]benzoic acid] | 0.963
6 | C=CC(=O)N1C[C@H](C)N(c2nc(=O)n(-c3c(C)ccnc3C(C)C)c3nc(-c4ccccc4C(N)=O)c(F)cc23)C[C@H]1C (atropisomer, axis not shown; (M)) [Example 94-17, (M)-2-[4-[(2S,5R)-2,5-Dimethyl-4-prop-2-enoyl-piperazin-1-yl]-6-fluoro-1-(2-isopropyl-4-methyl-3-pyridyl)-2-oxo-pyrido[2,3-d]pyrimidin-7-yl]benzamide] | 0.39
7 | C=CC(=O)N1C[C@H](C)N(c2nc(=O)n(-c3c(C)ccnc3C(C)C)c3nc(-c4ccccc4C(=O)NC)c(F)cc23)C[C@H]1C (atropisomer, axis not shown; (M)) [Example 94-18] | 0.749
8 | C=CC(=O)N1C[C@H](C)N(c2nc(=O)n(-c3c(C)ccnc3C(C)C)c3nc(-c4ccccc4N)c(F)cc23)C[C@H]1C (atropisomer, axis not shown; (M)) [Example 94-20, (M)-7-(2-Aminophenyl)-4-[(2S,5R)-2,5-dimethyl-4-prop-2-enoyl-piperazin-1-yl]-6-fluoro-1-(2-isopropyl-4-methyl-3-pyridyl)pyrido [2,3-d]pyrimidin-2-one] | 0.452
9 | C=CC(=O)N1C[C@H](C)N(c2nc(=O)n(-c3c(C)ccnc3C(C)C)c3nc(-c4cc(OC)cc5ccccc45)c(F)cc23)C[C@H]1C (atropisomer, axis not shown; (M)) [Example 94-21, (M)-4-[(2S,5R)-2,5-Dimethyl-4-prop-2-enoyl-piperazin-1-yl]-6-fluoro-1-(2-isopropyl-4-methyl-3-pyridyl)-7-(3-methoxy-1-naphthyl)pyrido[2,3-d]pyrimidin-2-one] | 32.4
10 | C=CC(=O)N1C[C@H](C)N(c2nc(=O)n(-c3c(C)ccnc3C(C)C)c3nc(CC(C)(C)C)c(Cl)cc23)C[C@H]1C (atropisomer, axis not shown; (M)) [Example 95-2, (M)-6-chloro-4-[(2S,5R)-2,5-dimethyl-4-prop-2-enoyl-piperazin-1-yl]-7-(2,2-dimethylpropyl)-1-(2-isopropyl-4-methyl-3-pyridyl)pyrido [2,3-d]pyrimidin-2-one] | 1.04
11 | C=CC(=O)N1C[C@H](C)N(c2nc(=O)n(-c3c(C)ccnc3C(C)C)c3nc(C4CCCC4)c(Cl)cc23)C[C@H]1C (atropisomer, axis not shown; (M)) [Example 95-3, (M)-6-chloro-7-cyclopentyl-4-[(2S,5R)-2,5-dimethyl-4-prop-2-enoyl-piperazin-1-yl]-1-(2-isopropyl-4-methyl-3-pyridyl)pyrido [2,3-d]pyrimidin-2-one] | 0.631
12 | C=CC(=O)N1C[C@H](C)N(c2nc(=O)n(-c3c(C)ccnc3C(C)C)c3nc(C4CC4)c(Cl)cc23)C[C@H]1C (atropisomer, axis not shown; (M)) [Example 95-4, (M)-6-chloro-7-cyclopropyl-4-[(2S,5R)-2,5-dimethyl-4-prop-2-enoyl-piperazin-1-yl]-1-(2-isopropyl-4-methyl-3-pyridyl)pyrido [2,3-d]pyrimidin-2-one] | 0.571
13 | C=CC(=O)N1C[C@H](C)N(c2nc(=O)n(-c3c(C)ccnc3C(C)C)c3nc(CCC)c(Cl)cc23)C[C@H]1C (atropisomer, axis not shown; (M)) [Example 95-6, (M)-6-chloro-4-[(2S,5R)-2,5-dimethyl-4-prop-2-enoyl-piperazin-1-yl]-1-(2-isopropyl-4-methyl-3-pyridyl)-7-propyl-pyrido[2,3-d]pyrimidin-2-one] | 0.823
14 | C=CC(=O)N1C[C@H](C)N(c2nc(=O)n(-c3c(C)ccnc3C(C)C)c3nc(C#CC(C)(C)C)c(Cl)cc23)C[C@H]1C (atropisomer, axis not shown; (M)) [Example 95-7, (M)-6-chloro~7-(3,3-dimethylbut-1-ynyl)-4-[(2S,5R)-2,5-dimethyl-4-prop-2-enoyl-piperazin-1-yl]-1-(2-isopropyl-4-methyl-3-pyridyl)pyrido [2,3-d]pyrimidin-2-one] | 34
15 | C=CC(=O)N1C[C@H](C)N(c2nc(=O)n(-c3c(C)ccnc3C(C)C)c3nc(-c4ncccc4C)c(Cl)cc23)C[C@H]1C (atropisomer, axis not shown; (M)) [Example 96-1, (M)-6-Chloro-4-[(2S,5R)-2,5-dimethyl-4-prop-2-enoyl-piperazin-1-yl]-1-(2-isopropyl-4-methyl-3-pyridyl)-7-(3-methyl-2-pyridyl)pyrido[2,3-d]pyrimidin-2-one] | 0.345
16 | C=CC(=O)N1C[C@H](C)N(c2nc(=O)n(-c3c(C)ccnc3C(C)C)c3nc(-c4ccccc4N(C)C(C)=O)c(Cl)cc23)C[C@H]1C (atropisomer, axis not shown; (M)) [Example 129-3, (M)-N-[2-[6-Chloro-4-[(2S,5R)-2,5-dimethyl-4-prop-2-enoyl-piperazin-1-yl]-1-(2-isopropyl-4-methyl-3-pyridyl)-2-oxo-pyrido[2,3-d]pyrimidin-7-yl]phenyl]-N-methyl-acetamide] | 0.352

Reference: patent US11285156B2, “Substituted piperazines as KRAS G12C inhibitors” (Amgen Inc., priority 2018, dated 2022)
